In patent US8877795B2, “Identification of stabilizers of multimeric proteins” (The Board of Trustees of the Leland Stanford Junior …, priority 2010, dated 2014):
Read-outs that look alike come from different tables or passages of the source.

Legend:
WT TTR = WT TTR (Homo sapiens (Human), UniProt P02766); experiment: Acid-mediated fibril formation assay for TTR amyloidogenesis (turbidity); conditions: TTR 3.6 μM; for % fibril formation / TTR aggregation inhibition (in words): ligand 7.2 μM, 72 h; for % fibril formation: pH 4.4, 37° C., no ligand = 100%; for inhibition of fibril formation: substoichiometric: ligand 3.0 μM, monitored over 5 days
Procedure: The efficacy of each compound to inhibit TTR amyloidogenesis was determined by monitoring the turbidity of TTR aggregation at acidic pH, as described previously. […] The final 1 ml sample mixture was vortexed, then incubated at 37° C. for 72 hours, after which the sample was vortexed and the optical density was measured at 400 nm on a Beckman DU® 640 spectrophotometer. […] The optical density was also corrected for the absorption of all test compounds in the absence of TTR. […] The optical density (400 nm) was measured as described above at 0, 24, 48, 72, 96, and 120 hours. All assays were performed in triplicate and the average values obtained are presented.
TTR was preincubated with small molecules for 30 min at room temperature before amyloidosis was initiated (lowering pH to 4.4, incubation at 37° C.). […] The amyloidogenesis inhibition efficacy of each compound was determined by monitoring the turbidity of TTR (400 nm). The extent of TTR amyloidogenesis was quantitated at a fixed time point (72 h). All amyloid fibril formation data was normalized to TTR amyloidogenesis in the absence of inhibitor, assigned to be 100% fibril formation. […] The aggregation inhibition was monitored over 5 days using the acid-mediated fibril formation assay (compared to 3 days for the fixed time point described above) (FIG. 5B).

TTR [1] = biological target: T1, TTR (Homo sapiens (Human), UniProt P02766); experiment: Determination of IC50 using the FP assay (HTS format, probe 5); type: binding; conditions: read-out: IC50 (compound concentration that resulted in 50% decrease in the FP signal); dose-response FP assay in duplicate
[2] = tested on: V122I TTR cytotoxicity in human AC16 cardiac cells; experiment: Inhibition of V122I TTR cytotoxicity in AC16 cells; conditions: TTR and ligand 8 μM, 24 h
Procedure: (§1) The human cardiac cell line AC16 was maintained in DMEM:F12 (1:1) supplemented with 10% FBS, 1 mM Hepes buffer, 2 mM L-glutamine, 100 units/mL penicillin and 100 μg/mL streptomycin. Two to 4-day-old cultures (˜70% confluent) were used for the experiments.
(§2) Recombinant WT TTR purified in the cold in HBSS (Mediatech, Manassas, Va.) was used as a cytotoxic insult to IMR-32 cells and the amyloidogenic V122I TTR was used as cytotoxic insult to cardiac AC16 cells. Candidate compounds (16 mM in DMSO) were diluted 1:1000 with WT TTR or V122I TTR (16 mM in HBSS, filter sterilized) or with HBSS only. The mixtures were vortexed and incubated for 24 h at 4° C. WT TTR or V122I TTR (16 mM in HBSS) containing the same amount of DMSO than TTR/candidate compound mixtures was prepared in parallel and incubated under the same conditions.
(§3) The neuroblastoma IMR-32 and the cardiac AC16 cells were seeded in black wall, clear bottom, tissue culture treated 96-well plates (Costar) at a density of 6,000 cells/well and 250 cells/well, respectively in Opti-mem supplemented with 5% FBS, 1 mM Hepes buffer, 2 mM L-glutamine, 100 units/mL penicillin and 100 μg/mL streptomycin, 0.05 mg/mL CaCl2 and incubated overnight at 37° C. The medium was then removed and replaced immediately by the TTR/compound or HBSS previously diluted 1:1 in Opti-mem supplemented with 0.8 mg/mL BSA, 2 mM Hepes buffer, 4 mM L-glutamine, 200 units/mL penicillin, 200 μg/mL streptomycin and 0.1 mg/mL CaCl2. The cells were incubated 24 h at 37° C. after which cell viability was measured.
(§4) Cell viability of the cells treated with TTR or TTR/candidate compound was evaluated by a resazurin reduction assay. Briefly, 10 μL/well of resazurin (500 mM, PBS) was added to each well and incubated for 2-3 h at 37° C. Viable cells reduce resazurin to the highly fluorescent resorufin dye, which is quantitated in a multiwell plate reader (Ex/Em 530/590 nm, Tecan Safire2, Austria). Cell viability was calculated as percentage of fluorescence relative to cells treated with vehicle only (100% viability) after subtraction of blank fluorescence (wells without cells). All experimental conditions were performed at least in six replicates. Averages and SEM corresponding to 2 independently performed experiments were calculated.
(§5) The compounds under study were pre-incubated with WT TTR or V122I TTR for 24 h at 4° C. at equimolar concentrations (8 μM) and added to IMR-32 cells or AC16 cells, respectively. Cell viability was measured after 24 h by a resazurin reduction assay. […] The percentage of viable cells was calculated relative to cells treated with vehicle only (cell culture media and DMSO)—which were assigned to be 100% viable.

[3] = tested on: WT TTR cytotoxicity in human IMR-32 neuroblastoma cells; experiment: Inhibition of WT TTR cytotoxicity in IMR-32 cells; conditions: TTR and ligand 8 μM, 24 h
Procedure: as §1, §2, §3, §4, §5

TTR [4] = biological target: T1, TTR; experiment: Fluorescence polarization displacement assay (probe 5 displaced from TTR); type: binding; conditions: probe 5 100 nM, TTR 200 nM
Procedure: The affinity of test compounds to TTR was determined as follows. […] The samples were allowed to equilibrate by agitation for 20 min at room temperature and the fluorescence polarization was measured as described above. The data were fit to the following equation [y=(A−D)/(1+(x/C)^B)+D] where A=maximum FP signal, B=slope, C=apparent binding constant (Kapp), and D=minimum FP signal. The apparent binding constant was reported as mean for triplicate experiments and the best data fit was determined by R^2 value.

human wild type TTR = human wild type TTR (Homo sapiens (Human), UniProt P02766); experiment: Isothermal titration calorimetry (ITC) of ligands against TTR; type: binding; conditions: for Kd: TTR 2 μM titrated with ligand 25 μM; for TΔS binding entropy / ΔG binding free energy / ΔH binding enthalpy: ITC
Procedure: Calorimetric titrations were carried out on a VP-ITC calorimeter (MicroCal, Northhampton, Mass.). […] Prior to each titration, all samples were degassed for 10 minutes. The initial injection of 3.0 μL was followed by 30 injections of 8.0 μL each (25° C.) to the point that TTR was fully saturated with ligand. Integration of the thermogram after subtraction of blanks yielded a binding isotherm that was analyzed with MicroCal Origin 5.0 software.

[5] = 25° C., one-to-one binding model, read-out: Kd (ITC)

SMILES | % fibril formation (WT TTR) [%] | IC50 (TTR [1]) [µM] | other results
COc1ccc(/C=N/n2c(S)nnc2C(F)(F)F)cc1O | 0.43 ± 0.61 | 0.277 | 
COc1c(Br)cc(/C=C2\SC(=O)NC2=O)cc1Br | 0.37 ± 0.53 | 0.301 | 
CCOc1ccccc1-c1nc(-c2ccncc2)no1 | 0.00 ± 0.00 |  | 
CC1(C)NC(=O)C(C#N)=C(SCc2ccccc2)S1 | 0.52 ± 0.73 | 0.433 | 
Cc1[nH]c2ccccc2c1C(C#N)(C#N)C1C(=O)c2ccccc2C1=O | 5.77 ± 3.91 | 0.586 | 
O=c1cc(-c2ccc(O)cc2)oc2cc(O)cc(O)c12 | 10.07 ± 0.53 | 0.653 | 
O=C1NC(=O)/C(=C/c2cccc(C(F)(F)F)c2)S1 | 1.92 ± 1.08 | 0.815 | 
O=C1NC(=O)/C(=C/c2cccc3ccccc23)S1 | 3.22 ± 0.34 | 0.842 | 
O=C(O)c1cc2nc(-c3ccc(Cl)c(Cl)c3)cc(C(F)(F)F)n2n1 | 1.81 ± 2.56 | 2.58 | 
COc1ccccc1CC(=O)c1ccc(O)cc1O | 9.60 ± 1.58 | 2.66 | 
Cc1ccccc1/C=C1\SC(=O)NC1=O | 10.44 ± 4.88 | 3.35 | 
O=c1c(Oc2ccccc2Br)coc2cc(O)ccc12 | 13.91 ± 1.28 | 3.71 | 
O=C(O)Cc1ccccc1Nc1c(O)cccc1Cl | 11.56 ± 0.72 | 3.74 | 
O=C1NC(=O)/C(=C/c2ccc(-c3ccc(Cl)c(C(=O)O)c3)o2)S1 | 13.90 ± 5.52 | 3.93 | 
O=c1c(Oc2ccccc2Cl)c(C(F)(F)F)oc2cc(O)ccc12 | 24.36 ± 1.11 | 4.22 | 
N#CC1=C(SCc2ccccc2)SC(c2ccccc2O)NC1=O (centres unmarked) | 3.17 ± 4.48 | 4.79 | 
CSC1=NSC2=NC(=O)/C(=C\c3cccc4ccccc34)C(=N)N12 | 28.77 ± 6.36 | 4.88 | 
CCOc1cc(C2NC(C(=O)O)CS2)cc(Br)c1OCc1ccccc1C (centres unmarked) | 17.57 ± 4.81 | 4.93 | 
O=C1C(Br)=CC(=NS(=O)(=O)c2ccccc2)C=C1Br | 43.25 ± 4.35 | 5.41 | 
Oc1nc(O)c2sc3nc(C(F)(F)F)cc(Cc4ccccc4)c3c2n1 | 35.32 ± 3.69 | 5.6 | 
O=C1NC(=O)/C(=C/c2ccccc2OCc2ccccc2)S1 | 38.38 ± 3.33 | 5.8 | 

SMILES | % fibril formation (WT TTR) [%] | IC50 (TTR [1]) [µM] | other results
CC1=C(CCC(=O)O)C(=O)N2c3ccccc3NC2C1C#N (centres unmarked) | 46.24 ± 1.33 | 8.69 | 
COc1cc(/C=C2\C(=N)N3N=C(S(C)(=O)=O)SC3=NC2=O)ccc1OCc1ccccc1C | 48.25 ± 0.68 | 9.76 | 
O=C(NCc1cc(Br)cc(Br)c1O)c1ccccc1 | 50.96 ± 1.98 | 10 | 
CC(=O)Nc1ccc(Nc2nc3ccccc3nc2NS(=O)(=O)c2ccc(C)cc2)cc1 | 49.43 ± 4.26 | 10.6 | 
Cc1nc2c(C(=O)NCCC(C)C)cnn2c(O)c1Cc1ccccc1F | 47.39 ± 1.94 | 11 | 
O=[N+]([O-])c1cc(O)c(O)c([N+](=O)[O-])c1 [3,5-dinitrocatechol, reference compound] |  |  | TTR aggregation inhibition (in words) (WT TTR): potent aggregation inhibitors; prevention of V122I TTR-induced cytotoxicity (in words) [2]: poor inhibitor; prevention of WT TTR-induced cytotoxicity (in words) [3]: poor inhibitor
NCCOCCOCCNC(=O)c1ccc(-c2c(F)cccc2F)cc1 [Compound 2, N-(2-(2-(2-aminoethoxy)ethoxy)ethyl)-2′,6′-difluorobiphenyl-4-carboxamide] |  |  | displacement of probe 5 from TTR (FP signal) (TTR [4]): did not displace probe 5; Kd (TTR [4]; read-out: FP Kapp (apparent binding constant)): > 50 µM; Kd (human wild type TTR; [5]): > 3.29 µM; Kd (human wild type TTR; read-out: ITC Kd): > 3.29 µM
NCCOCCOCCOc1c(Cl)cc(Nc2ccccc2C(=O)O)cc1Cl [Compound 4, 2-(4-(2-(2-(2-aminoethoxy)ethoxy)ethoxy)-3,5-dichlorophenylamino)benzoic acid] |  |  | TΔS binding entropy (human wild type TTR): 0.33 ± 0.042 kJ/mol; ΔG binding free energy (human wild type TTR): -37.4 ± 0.586 kJ/mol; ΔH binding enthalpy (human wild type TTR): -37 ± 3.97 kJ/mol; Kd (human wild type TTR; [5]): 0.285 µM
O=C(O)c1ccccc1Nc1cc(Cl)c(OCCOCCOCCNC(=S)Nc2ccc3c(c2)C(=O)OC32c3ccc(O)cc3Oc3cc(O)ccc32)c(Cl)c1 [Compound 5, 2-(3,5-dichloro-4-(2-(2-(2-(3-(3′,6′-dihydroxy-3-oxo-3H-spiro[isobenzofuran-1,9′-xanthene]-5-yl)thioureido)ethoxy)ethoxy)ethoxy)phenylamino)benzoic acid] |  |  | decrease in binding affinity to TTR on attaching FITC to 4 (human wild type TTR; 5 relative to 4): ~3 fold; TΔS binding entropy (human wild type TTR): 6.02 ± 0.29 kJ/mol; ΔG binding free energy (human wild type TTR): -34.7 ± 1.88 kJ/mol; ΔH binding enthalpy (human wild type TTR): -28.7 ± 1.51 kJ/mol; Kd (human wild type TTR; [5]): 0.82 µM
Cc1n[nH]c(C)c1CCCOc1ccccc1F [Compound 7] |  |  | inhibition of fibril formation (WT TTR): > 75%; prevention of V122I TTR-induced cytotoxicity (in words) [2]: completely prevented TTR-induced cytotoxicity; prevention of WT TTR-induced cytotoxicity (in words) [3]: completely prevented TTR-induced cytotoxicity; TΔS binding entropy (human wild type TTR): -0.628 ± 0.0084 kJ/mol; ΔG binding free energy (human wild type TTR): -37.1 ± 0.711 kJ/mol; ΔH binding enthalpy (human wild type TTR): -37.7 ± 0.544 kJ/mol; Kd (human wild type TTR; [5]): 0.321 µM
CN1C(=N)NC(=O)/C1=C/c1cc(Br)c(O)c(Br)c1 [Compound 14] |  |  | inhibition of fibril formation (WT TTR): > 75%; prevention of V122I TTR-induced cytotoxicity (in words) [2]: completely prevented TTR-induced cytotoxicity; prevention of WT TTR-induced cytotoxicity (in words) [3]: completely prevented TTR-induced cytotoxicity; TΔS binding entropy (human wild type TTR): 9.87 ± 0.33 kJ/mol; ΔG binding free energy (human wild type TTR): -37.7 ± 0.795 kJ/mol; ΔH binding enthalpy (human wild type TTR): -27.9 ± 0.92 kJ/mol; Kd (human wild type TTR; [5]): 0.245 µM
Cc1n[nH]c(C)c1CCc1nc2c3ccccc3[nH]c(=S)n2n1 [Compound 15] |  |  | inhibition of fibril formation (WT TTR): > 75%; prevention of V122I TTR-induced cytotoxicity (in words) [2]: completely prevented TTR-induced cytotoxicity; prevention of WT TTR-induced cytotoxicity (in words) [3]: completely prevented TTR-induced cytotoxicity
O=C(O)c1cccnc1Nc1cccc(C(F)(F)F)c1 [Niflumic acid, niflumic acid, reference compound] |  |  | TTR aggregation inhibition (in words) (WT TTR): potent aggregation inhibitors; prevention of V122I TTR-induced cytotoxicity (in words) [2]: relatively poor inhibitor
O=C(c1cc(O)c(O)c([N+](=O)[O-])c1)c1ccccc1F [Ro 41-0960, reference compound] |  |  | TTR aggregation inhibition (in words) (WT TTR): potent aggregation inhibitors; inhibition of fibril formation (WT TTR): > 75%; prevention of V122I TTR-induced cytotoxicity (in words) [2]: completely prevented TTR-induced cytotoxicity; prevention of WT TTR-induced cytotoxicity (in words) [3]: completely prevented TTR-induced cytotoxicity; TΔS binding entropy (human wild type TTR): -18 ± 0.46 kJ/mol; ΔG binding free energy (human wild type TTR): -38.4 ± 1.97 kJ/mol; ΔH binding enthalpy (human wild type TTR): -56.5 ± 1.34 kJ/mol; TΔS binding entropy (human wild type TTR; listed as Ro41-0960): -18 ± 0.46 kJ/mol; ΔG binding free energy (human wild type TTR; listed as Ro41-0960): -38.4 ± 1.97 kJ/mol; ΔH binding enthalpy (human wild type TTR; listed as Ro41-0960): -56.5 ± 1.34 kJ/mol; Kd (human wild type TTR; [5]): 0.184 µM
O=C(O)c1cccnc1Nc1cccc(C(F)(F)F)c1 [drawing 60] | 4.83 ± 1.19 |  | 
Cc1n[nH]c(C)c1CCCOc1ccccc1F [drawing 61] | 0.75 ± 1.06 | 0.296 | 
O=[N+]([O-])c1cc(O)c(O)c([N+](=O)[O-])c1 [drawing 68] | 1.08 ± 0.59 |  | 
O=C(c1cc(O)c(O)c([N+](=O)[O-])c1)c1ccccc1F [drawing 69] | 0.32 ± 0.45 | 0.755 | 
CN1C(=N)NC(=O)/C1=C/c1cc(Br)c(O)c(Br)c1 [drawing 72] | 0.00 ± 0.00 | 1.15 | 
Cc1n[nH]c(C)c1CCc1nc2c3ccccc3[nH]c(=S)n2n1 [drawing 73] | 0.00 ± 0.00 | 1.31 | 
